Measurements from patent US5733913A, “6-Aryl pyrido[2,3-d] pyrimidines and naphthyridines for inhibiting protein tyrosine kinase mediated cellular proliferation” (priority 1995, dated 1998).
Where two headings read alike, the source gives them in different places.

What was measured:
[1] = system: PDGF receptor; assay: PDGF receptor autophosphorylation in RASMC; assay type: cell-based, rat; conditions: PDGF-BB 30 ng/mL, read-out: Inhibition of PDGF Stimulated Receptor Auto Phosphorylation (IC50)
Procedure: Rat aorta smooth muscle cells (RASMC) were isolated from the thoracic aorta of rats and explanted according to the method of Ross, J. Cell. […] Cells were grown in Dulbecco's modified Eagle's medium (DMEM, Gibco) containing 10% fetal calf serum (FBS, Hyclone, Logan, Utah), 1% glutamine (Gibco) and 1% penicillin/streptomycin (Gibco). Cells were identified as smooth muscle cells by their "hill and valley" growth pattern and by fluorescent staining with a monoclonal antibody specific for SMC μ-actin (Sigma). RASMC were used between passages 5 and 20 for all experiments. Test compounds were prepared in dimethylsulfoxide (DMSO) in order to achieve consistency in the vehicle and to ensure compound solubility. Appropriate DMSO controls were simultaneously evaluated with the test compounds.
PDGF Receptor Autophosphorylation
RASMC were grown to confluency in 100 mm dishes. Growth medium was removed and replaced with serum-free medium and cells were incubated at 37° C. for an additional 24 hours. Test compounds were then added directly to the medium and cells incubated for an additional 2 hours. After 2 hours, PDGF-BB was added at a final concentration of 30 ng/mL for 5 minutes at 37° C. to stimulated autophosphorylation of the PDGF receptor. Following growth factor treatment, the medium was removed, and cells were washed with cold phosphate-buffered saline and immediately lysed with 1 mL of lysis buffer (50 mM HEPES[pH 7.5], 150 mM NaCl, 10% glycerol, 1% Triton X-100, 1 mM EDTA, 1 mMEGTA, 50 mM NaF, 1 mM sodium orthovanadate, 30 mM p-nitrophenyl phosphate, 10 mM sodium pyrophosphate, 1 mM phenylmethyl sulfonyl fluoride, 10 μg/mL aprotinin, and 10 μg/mL leupeptin). Lysates were centrifuged at 10,000×g for 10 minutes. […] Following the incubation, protein-A-sepharose beads were added for 2 hours with continuous mixing, and immune complexes bound to the beads washed 4 times with 1 mL lysis wash buffer. Immune complexes were solubilized in 30 μL of Laemmli sample buffer and electrophoresed in 4-20% SDS polyacrylamide gels. Following electrophoresis, separated proteins were transferred to nitrocellulose and immunoblotted with anti-phosphotyrosine antiserum. […] IC50 values were generated from the densitometric data.

[2] = system: Rat aorta smooth muscle cells (RASMC); assay: [3H]-Thymidine incorporation assay in RASMC; assay type: cell-based; conditions: read-out: Inhibition of Growth Factor Stimulated Uptake of [3H]-thymidine (IC50)
Procedure: Cell Culture Rat aorta smooth muscle cells (RASMC) were isolated from the thoracic aorta of rats and explanted according to the method of Ross, J. Cell. Biol., 30:172-186 (1971). Cells were grown in Dulbecco's modified Eagle's medium (DMEM, Gibco) containing 10% fetal calf serum (FBS, Hyclone, Logan, Utah), 1% glutamine (Gibco) and 1% penicillin/streptomycin (Gibco). Cells were identified as smooth muscle cells by their "hill and valley" growth pattern and by fluorescent staining with a monoclonal antibody specific for SMC […] (Sigma). RASMC were used between passages 5 and 20 for all experiments. Test compounds were prepared in dimethylsulfoxide (DMSO) in order to achieve consistency in the vehicle and to ensure compound solubility. Appropriate DMSO controls were simultaneously evaluated with the test compounds. […] RASMC were plated into a 24-well plate (30,000 cells/well) in DMEM with 10% FBS. After 4 days, cells reached confluence and were made quiescent by incubation in DMEM/F12 medium (Gibco) containing 0.2% FBS for another 2 days. […] […] The acid-insoluble fraction was lysed in 0.75 mL 0.25N NaOH and the radioactivity determined by liquid scintillation counting. IC50 values were determined graphically.

[3] = molecular target: T1, human FGF-1 (flg) receptor tyrosine kinase (Homo sapiens, UniProt P11362); assay: FGF receptor tyrosine kinase assay; assay type: biochemical; conditions: read-out: Inhibition of Protein Tyrosine Kinases, FGF, IC50
T1 construct: a fragment of DNA that codes for the intracellular tyrosine kinase domain; made in house; host or cells: Sf9 insect cells (baculovirus), cell lysate
Outline: (§1)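 Intracellular kinase domains expressed in baculovirus-infected SF9 cells; crude lysate used as enzyme. Inhibitor preincubated 10 min at 25 °C with lysate in pH 7.0 Hepes buffer with 10 mM MnCl2 and poly(Glu-Tyr) 4:1, then γ-32P-ATP (50 μM ATP) added for 10 min at 25 °C. TCA-precipitated 32P on filters counted, no-enzyme background subtracted.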

[4] = molecular target: T2, C-src kinase (Homo sapiens, UniProt P12931); assay: C-src kinase assay; assay type: biochemical; conditions: read-out: Inhibition of Protein Tyrosine Kinases, C-src, IC50
T2 construct: made in house; host or cells: baculovirus-infected insect cells
Outline: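 Baculovirus-expressed c-src immunopurified on antibody-coated latex beads, assayed in 40 mM Tris pH 7.5, 5 mM MgCl2 with poly GluTyr substrate and 5 μM ATP plus 32P-ATP. Reaction 10 min at room temperature, TCA-quenched, filtered; incorporated label counted by scintillation.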

[5] = system: Streptococcus pneumoniae; assay: standard in vitro assays of antibacterial activity; assay type: cell-based; conditions: Gram+ bacterial strain
Description: These compounds are potent inhibitors of one or more of the protein kinases, PDGF, FGF, EGF, V-src, and C-src. The invention compounds are thus useful in treating atherosclerosis, restenosis, and cancer. Specific tumors to be treated with the compounds include small-cell lung carcinoma such as that described in An. Rev. Respir. Dis., 142:554-556 (1990); human breast cancer as described in Cancer Research, 52:4773-4778 (1992); low grade human bladder carcinomas of the type described in Cancer Research, 52:1457-1462 (1992); human colorectal cancer as discussed in J. Clin. Invest., 91:53-60 (1993); and in J. Surg. Res., 54:293-294 (1993). The compounds also are useful as antibiotics against bacteria such as Streptococcus pneumoniae. […] The compounds additionally are useful as herbicides against a wide variety of undesirable plants such as broad leaf weeds and grasses.

[6] = molecular target: T3, mouse PDGF-β receptor tyrosine kinase (Mus musculus, UniProt P05622); assay: PDGF receptor tyrosine kinase assay; assay type: biochemical; conditions: read-out: Inhibition of Protein Tyrosine Kinases, PDGF, IC50
T3 construct: a fragment of DNA that codes for the intracellular tyrosine kinase domain; made in house; host or cells: Sf9 insect cells (baculovirus), cell lysate
Outline: as §1

[7] = system: V-src kinase; assay: V-src kinase assay; assay type: biochemical; conditions: at 50 μM
Procedure: V-src and C-src Kinase Assays
V-src or C-src kinase is purified from baculovirus infected insect cell lysates using an antipeptide monoclonal antibody directed against the N-terminal 2-17 amino acids. The antibody, covalently linked to 0.65-μm latex beads, is added to a suspension of insect cell lysis buffer comprised of 150 mM NaCl, 50 mM Tris pH 7.5, 1 mM DTT, 1% NP-40, 2 mM EGTA, 1 mM sodium vanadate, 1 mM PMSF, 1 μg/mL each of leupeptin, pepstatin, and aprotinin. Insect cell lysate containing either the c-src or v-src protein is incubated with these beads for 3-4 hours at 4° C. with rotation. At the end of the lysate incubation, the beads are rinsed 3 times in lysis buffer, resuspended in lysis buffer containing 10% glycerol, and frozen. These latex beads are thawed, rinsed three times in assay buffer which is comprised of 40 mM tris pH 7.5, 5 mM MgCl2, and suspended in the same buffer. In a Millipore 96-well plate with a 0.65 μm polyvinylidine membrane bottom are added the reaction components: 10-μL v-src or c-src beads, 10 μL of 2.5 mg/mL poly GluTyr substrate, 5 μM ATP containing 0.2 μCi labeled ^32 P-ATP, 5μL DMSO containing inhibitors or as a solvent control, and buffer to make the final volume 125 μL. The reaction is started at room temperature by addition of the ATP and quenched 10 minutes later by the addition of 125 μL of 30% TCA, 0.1M sodium pyrophosphate for 5 minutes on ice. The plate is then filtered and the wells washed with two 250-μL aliquots of 15% TCA, 0.1M pyrophosphate. The filters are punched, counted in a liquid scintillation counter, and the data examined for inhibitory activity in comparison to a known inhibitor such as erbstatin. The method is described more fully in J. Med. Chem., 37:598-609 (1994).

[8] = molecular target: T4, Human EGF receptor tyrosine kinase (Homo sapiens, UniProt P00533); assay: EGF receptor tyrosine kinase assay; assay type: biochemical; conditions: read-out: Inhibition of Protein Tyrosine Kinases, EGF, IC50
T4 construct: isolated from A431 epidermoid carcinoma cells; endogenous in cells; host or cells: A431 epidermoid carcinoma cells (Triton lysate, wheat germ agglutinin eluate)
Procedure: Purification of Epidermal Growth Factor Receptor Tyrosine Kinase
Human EGF receptor tyrosine kinase was isolated from A431 epidermoid carcinoma cells by the following methods. Cells were grown in roller bottles in 50% Delbuco's Modified Eagle and 50% HAM F-12 nutrient media (Gibco) containing 10% fetal calf serum. Approximately 10^9 cells were lysed in two volumes of buffer containing 20 mM 2-(4N-[2-hydroxyethyl]piperazin-1-yl)ethanesulfonic acid, pH 7.4, 5 mM ethylene glycol bis(2-aminoethyl ether)N,N,N',N'-tetraacetic acid, 1% Triton X-100, 10% glycerol, 0.1 mM sodium orthovanadate, 5 mM sodium fluoride, 4 mM pyrophosphate, 4 mM benzamide, 1 mM dithiothreitol, 80 μg/mL aprotinin, 40 μg/mL leupeptin, and 1 mM phenylmethylsulfonyl fluoride. After centrifugation at 25,000×g for 10 minutes, the supernatant was equilibrated for 2 hours at 4° C. with 10 mL of wheat germ agglutinin sepharose that was previously equilibrated with 50 mM Hepes, 10% glycerol, 0.1% Triton X-100 and 150 mM NaCl, pH 7.5, (equilibration buffer). Contaminating proteins were washed from the resin with 1M NaCl in equilibration buffer, and the enzyme was eluted with 0.5M N-acetyl-1-D-glucosamine in equilibration buffer.
Determination of IC50 Values
The reaction was terminated by the addition of 2 mL of 75 mM phosphoric acid and passed through a 2.5-cm phosphocellulose filter disc to bind the peptide. The filter was washed five times with 75 mM phosphoric acid and placed in a vial along with 5 mL of scintillation fluid (Ready gel Beckman).

T2 sequence (P12931 whole entry): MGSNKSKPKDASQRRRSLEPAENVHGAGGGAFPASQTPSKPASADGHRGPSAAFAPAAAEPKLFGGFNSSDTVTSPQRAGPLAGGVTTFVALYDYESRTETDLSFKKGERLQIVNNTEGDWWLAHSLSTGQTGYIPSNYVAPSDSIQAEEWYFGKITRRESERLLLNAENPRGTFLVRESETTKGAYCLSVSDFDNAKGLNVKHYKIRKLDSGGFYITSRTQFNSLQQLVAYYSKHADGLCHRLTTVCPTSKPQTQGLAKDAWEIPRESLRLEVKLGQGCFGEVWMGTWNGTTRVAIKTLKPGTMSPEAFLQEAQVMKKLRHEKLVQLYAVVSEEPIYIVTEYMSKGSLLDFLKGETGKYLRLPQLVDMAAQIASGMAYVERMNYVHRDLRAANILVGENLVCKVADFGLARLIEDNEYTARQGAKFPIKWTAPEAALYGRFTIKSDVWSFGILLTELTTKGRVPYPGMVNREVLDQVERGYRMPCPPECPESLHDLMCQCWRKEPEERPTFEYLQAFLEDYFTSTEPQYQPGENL
T1 sequence (P11362 478-767 limits assumed): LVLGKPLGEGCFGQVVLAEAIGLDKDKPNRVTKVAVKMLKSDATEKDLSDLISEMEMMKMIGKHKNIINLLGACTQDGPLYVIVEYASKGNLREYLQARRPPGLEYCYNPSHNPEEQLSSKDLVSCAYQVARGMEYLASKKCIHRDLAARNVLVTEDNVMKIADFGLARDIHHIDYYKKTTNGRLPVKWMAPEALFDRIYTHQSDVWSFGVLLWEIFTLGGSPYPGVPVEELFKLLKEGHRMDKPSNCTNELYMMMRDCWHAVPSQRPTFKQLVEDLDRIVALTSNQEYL
T3 sequence (P05622 599-961 limits assumed): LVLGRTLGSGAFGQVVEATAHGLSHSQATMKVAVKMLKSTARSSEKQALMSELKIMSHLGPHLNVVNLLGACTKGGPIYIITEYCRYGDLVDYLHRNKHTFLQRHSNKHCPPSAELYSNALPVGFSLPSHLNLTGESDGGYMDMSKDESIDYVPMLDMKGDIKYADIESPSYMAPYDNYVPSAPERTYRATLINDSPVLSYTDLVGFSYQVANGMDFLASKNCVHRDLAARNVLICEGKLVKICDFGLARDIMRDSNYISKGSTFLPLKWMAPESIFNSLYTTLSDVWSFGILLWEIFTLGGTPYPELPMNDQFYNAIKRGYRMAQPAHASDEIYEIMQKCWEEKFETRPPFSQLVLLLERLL
T4 sequence (P00533 25-1210): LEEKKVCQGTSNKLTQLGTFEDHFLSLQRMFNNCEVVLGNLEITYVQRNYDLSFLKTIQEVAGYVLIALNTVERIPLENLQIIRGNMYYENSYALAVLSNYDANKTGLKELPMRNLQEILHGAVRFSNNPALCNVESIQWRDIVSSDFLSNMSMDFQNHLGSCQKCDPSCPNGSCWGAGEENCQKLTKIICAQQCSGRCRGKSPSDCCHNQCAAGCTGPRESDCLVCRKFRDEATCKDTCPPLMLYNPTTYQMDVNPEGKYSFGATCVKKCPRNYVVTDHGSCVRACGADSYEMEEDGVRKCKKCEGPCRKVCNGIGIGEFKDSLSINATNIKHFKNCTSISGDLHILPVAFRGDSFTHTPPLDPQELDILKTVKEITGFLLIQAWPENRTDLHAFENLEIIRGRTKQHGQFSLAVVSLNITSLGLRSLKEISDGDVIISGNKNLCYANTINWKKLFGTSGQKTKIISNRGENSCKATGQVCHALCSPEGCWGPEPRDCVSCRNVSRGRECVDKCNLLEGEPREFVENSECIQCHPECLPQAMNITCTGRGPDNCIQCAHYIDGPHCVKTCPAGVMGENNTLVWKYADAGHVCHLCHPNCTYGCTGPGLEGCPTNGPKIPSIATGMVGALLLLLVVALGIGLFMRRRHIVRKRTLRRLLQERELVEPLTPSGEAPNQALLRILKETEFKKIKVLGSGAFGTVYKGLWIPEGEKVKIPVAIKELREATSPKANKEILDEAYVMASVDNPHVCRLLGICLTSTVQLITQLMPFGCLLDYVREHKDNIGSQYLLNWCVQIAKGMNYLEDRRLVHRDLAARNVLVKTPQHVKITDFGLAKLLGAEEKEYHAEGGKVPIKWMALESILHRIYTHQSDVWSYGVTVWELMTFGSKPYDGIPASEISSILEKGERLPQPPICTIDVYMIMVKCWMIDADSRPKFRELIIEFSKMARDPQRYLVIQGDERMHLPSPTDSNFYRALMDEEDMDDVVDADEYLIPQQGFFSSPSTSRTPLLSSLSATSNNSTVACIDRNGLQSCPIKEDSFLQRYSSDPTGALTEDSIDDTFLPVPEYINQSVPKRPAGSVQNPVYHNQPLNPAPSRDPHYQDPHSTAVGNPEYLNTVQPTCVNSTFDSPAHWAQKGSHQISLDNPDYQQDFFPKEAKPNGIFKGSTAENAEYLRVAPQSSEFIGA

SMILES | IC50 [1] | IC50 [4] | IC50 ([2]; FGF stimulated) | IC50 ([2]; PDGF stimulated) | IC50 [3] | activity against Streptococcus pneumoniae [5] | IC50 [6] | Inhibition of Protein Tyrosine Kinases, V-src, % Inhibition [7] | IC50 [8]
CCCCNc1nc2nc(N)ncc2cc1-c1ccccc1 [Example 9, N^7 -Butyl-6-phenyl-pyrido[2,3-d]pyrimidine-2,7-diamine] |  | 18300 nM |  |  | 10600 nM | exhibited activity | 25.1 µM |  | 
Nc1cc2nc(N)c(-c3c(Cl)cccc3Cl)cc2cn1 [Example 18, 3-(2,6-Dichlorophenyl)-[1,6]-naphthyridine-2,7-diamine] |  | 514 nM |  |  | 1190 nM | exhibited activity | 21.3 µM | 21.4% | 18.2 µM
CC(C)(C)NC(=O)Nc1nc2nc(N)ncc2cc1-c1c(Cl)cccc1Cl [Example 3, 1-[2-Amino-6-(2,6-dichlorophenyl)-pyrido[2,3-d]pyrimidin-7-yl]-3-tert-butylurea] | 970 nM |  | 900 nM | 2700 nM | 140 nM |  | 1.25 µM | 46.8% | 

Now from value to molecule, other results behind:

IC50 [1] | IC50 [4] | SMILES | IC50 ([2]; FGF stimulated) | IC50 ([2]; PDGF stimulated) | IC50 [3] | activity against Streptococcus pneumoniae [5] | IC50 [6] | Inhibition of Protein Tyrosine Kinases, V-src, % Inhibition [7] | IC50 [8]
241 nM |  | CN1CCN(CCCNc2ncc3cc(-c4c(Cl)cccc4Cl)c(NC(=O)NC(C)(C)C)nc3n2)CC1 [Example 52, 1-tert-Butyl-3-{6-(2,6-dichlorophenyl)-2-[3-(4-methyl-piperazin-1-yl)-propylamino]-pyrido[2,3-d]pyrimidin-7-yl}-urea] | 400 nM | 450 nM |  |  |  |  | 
245 nM |  | CCNC(=O)Nc1nc2nc(NCCCCN(CC)CC)ncc2cc1-c1c(Cl)cccc1Cl [Example 124, 1-[6-(2,6-Dichlorophenyl)-2-(4-diethylamino-butyl-amino)-pyrido[2,3-d]pyrimidin-7-yl]-3-ethyl-urea] | 930 nM | 550 nM |  |  |  |  | 
296 nM | 29 nM | CCN(CC)CCCCNc1ncc2cc(-c3c(Cl)cccc3Cl)c(NC(=O)NC(C)(C)C)nc2n1 [Example 123, 1-tert-Butyl-3-[6-(2,6-dichlorophenyl)-2-(4-diethyl-amino-butylamino)-pyrido[2,3-d]pyrimidin-7-yl]-urea] | 320 nM | < 300 nM |  |  |  |  | 
